This passage reports TGI results from PubChem BioAssay (NCI).

The subject of one assay is DMS 114 small cell lung. Description: NCI tumour cell line growth inhibition, 48 h.
The subject of another assay is P388 leukemia. The assay is described as follows: NCI tumour cell line growth inhibition, 48 h.

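1) Cells in 96-well plates. 2) Compound, 48 h, 5 concentrations. 3) Linear interpolation between surrounding doses. 4) Unreached endpoint = highest concentration. The concentration for full growth arrest is given as TGI.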 Where a SMILES comes first, the peptide text is derived from it. [ ]: non-standard residue; d: D form. Some results are limits rather than exact numbers.

Compound `O=C(O)C1CCCCN1c1ccccc1[N+](=O)[O-]` (stereo not drawn) displayed a TGI in the assay on DMS 114 small cell lung greater than 100 µM. `CC(C)C[C@H](NC(=O)[C@H](CC(C)C)NC(=O)[C@@H](Cc1c[nH]c2ccccc12)NC(=O)[C@H](Cc1ccccc1)NC(=O)[C@@H](Cc1c[nH]c2ccccc12)NC(=O)[C@H](CCC(N)=O)NC(=O)[C@H](CCC(N)=O)NC(=O)[C@H]1CCCN1C(=O)[C@@H](N)CCCCN)C(N)=O` (H-K[dP]QQ[dW]F[dW]LL-NH2): in the assay on P388 leukemia, the TGI was greater than 100 µM. Take `CC1=CC2c3cccc4[nH]cc(c34)CC2N(C)C1` (stereo not drawn): the TGI in the assay on P388 leukemia and with DMS 114 small cell lung was greater than 100 µM throughout.

In the assay on DMS 114 small cell lung, `CC(C)NC(=O)OCc1c2c(n(C)c1COC(=O)NC(C)C)-c1ccccc1CC2` returned a TGI of 17 µM. Still for that read-out and setting: to `CCn1cnnc1-c1nsc2ccccc12` belongs greater than 100 µM.

`CC(=O)Nc1cccc(N=NN(C)C)c1`: the TGI with P388 leukemia and in the assay with DMS 114 small cell lung was greater than 100 µM throughout.
